Measured values taken from the NIST ThermoML archive (doi:10.1021/je900077g).
± gives the expanded uncertainty stated by the source.

Experiment: excess molar enthalpy (molar enthalpy of mixing); xn = mol fraction of the nth substance listed
Conditions: 308.15 K, 101 kPa, Liquid, Calvet calorimetry

C1CCOCC1 [tetrahydropyran] + C1COCCO1
Conditions	excess molar enthalpy [kcal/mol]
x1 = 0.104	0.0356 ± 0.00239
x1 = 0.201	0.0595 ± 0.00239
x1 = 0.299	0.0753 ± 0.00239
x1 = 0.398	0.0841 ± 0.00263
x1 = 0.497	0.0863 ± 0.00263
x1 = 0.612	0.0817 ± 0.00263
x1 = 0.716	0.0707 ± 0.00239
x1 = 0.8	0.0562 ± 0.00239
x1 = 0.9	0.0323 ± 0.00239

C1COCCO1 [1,4-dioxane] + C1CCCCC1
Conditions	excess molar enthalpy [kcal/mol]
x2 = 0.101	0.136 ± 0.00335
x2 = 0.204	0.251 ± 0.00359
x2 = 0.288	0.319 ± 0.00359
x2 = 0.408	0.374 ± 0.00382
x2 = 0.506	0.3872 ± 0.00382
x2 = 0.606	0.376 ± 0.00382
x2 = 0.705	0.343 ± 0.00359
x2 = 0.803	0.275 ± 0.00359
x2 = 0.9	0.166 ± 0.00359

C1CCOCC1 [tetrahydropyran] + C1CCCCC1
Conditions	excess molar enthalpy [kcal/mol]
x2 = 0.101	0.0375 ± 0.00263
x2 = 0.2	0.0703 ± 0.00263
x2 = 0.3	0.0985 ± 0.00263
x2 = 0.4	0.117 ± 0.00263
x2 = 0.499	0.126 ± 0.00263
x2 = 0.606	0.124 ± 0.00263
x2 = 0.699	0.11 ± 0.00263
x2 = 0.8	0.0848 ± 0.00263
x2 = 0.9	0.0473 ± 0.00263
